In patent US20210330650A1, “SPIROCHROMANE DERIVATIVES” (RICHTER GEDEON NYRT., priority 2018, published 2021):

How the values were obtained:
human α7 nAchR = target: T1, human α7 nAchR (Homo sapiens, UniProt P36544); assay: Human α7 nicotinic acetylcholine receptor [Ca2+]i assay (Ca2+ fluorometry, PAM concentration-response); assay type: cell-based; details: Flp-In 293 cells expressing human α7 nAchR and human RIC-3; in presence of saturating agonist (mostly PNU-282987, 1 μM)
T1 construct: expressed in transfected cells
Method: Human α7 Nicotinic Acetylcholine Receptor [Ca2+]i Assay
Cells: Flp-In 293 cells stably expressing human α7 nAchR and human RIC-3 (α7 cells, generated in house.)
Materials: 96-well plates coated with PDL (Falcon), culture medium, assay buffer, DMSO, FLIPR Calcium 5 kit (Molecular Devices), probenecid, agonist and PAM test compounds.
Brief Description of the Method (Ca^2+ Fluorometry)
α7 cells stably expressing human α7 nAchR were cultured in the medium detailed above, and were split twice a week. For the fluorometric measurements of cytosolic Ca^2+ ion concentration ([Ca^2+]i) cells were seeded in 96-well microplates at a density of 60000 cells/well and maintained overnight in a tissue culture incubator at 37° C. under an atmosphere of 95% air/5% CO2. The plating medium was identical with the culture medium. 50 μl of the growth medium was aspirated with a cell washer (BioTek Elx405UCVWS). Then 50 μl/well Calcium 5 kit diluted 2-fold in assay buffer was added manually using an 8-channel pipette. After an incubation period (20 minutes, 37° C.) 50 μl/well assay buffer containing vehicle (DMSO, 4% added) or reference α7 PAMs (4× of the final concentration) were added manually and the cells were incubated for an additional 10 minutes at 37° C. Baseline and agonist-evoked [Ca^2+]i-changes were monitored with FlexStation II (Molecular Devices, Sunnyvale, Calif.), a plate reader fluorometer with integrated 8-channel fluid addition capability. Fluorescence measurements were carried out at 37° C. The dye was excited at 485 nm, emission was sampled at 525 nm at 1.4-s intervals. Baseline was recorded for 20 seconds followed by agonist stimulation. 50 μl 4× concentrated agonist solution was added to the cells using the pipettor of FlexStation II and fluorescence was monitored for an additional 40 seconds. Final DMSO concentration was 1% for all treatments. To achieve this, a series of DMSO stock solutions were prepared from all test compounds. These stocks were stored under 0° C. and were further diluted in assay buffer to obtain the desired final concentration immediately before the measurement. Agonist and PAM concentration-response studies were conducted in the presence of saturating concentrations of PAMs (mostly PNU-120596, 5 μM) and agonists (mostly PNU-282987, 1 μM), respectively. Results were expressed as ΔF/F values using SoftMax Pro software (Molecular Devices), where F was the resting fluorescence preceding agonist application and ΔF was the increase in fluorescence at a given time (ΔF=maximum fluorescence intensity values after stimulation minus average fluorescence intensity values before stimulation). In all experiments, all treatments were measured in multiple wells in parallel, and the mean ΔF/F values were used for analysis.

Male NMRI mice = assay: Place recognition test (Y-maze), reversal of scopolamine-induced amnesia; assay type: in vivo; details: scopolamine 1 mg/kg i.p.
Method: In Vivo Pharmacology (Place Recognition Test)
Animals: Male NMRI mice (Toxicoop, Hungary)
Substances: Scopolamine was dissolved in saline and administered at 1 mg/kg dose i.p. Test compounds were administered 30 minutes before the acquisition trial (T1) and scopolamine after the acquisition trial at a volume of 0.1 ml/10 g.
Procedure: The task was carried out in a transparent plexiglass Y-maze (each arm has a length of 40 cm, an inner width of 11 cm and a height of 30 cm). Numerous visual cues were placed around the arms and were kept constant during the experiment. The test consisted of two trials (T1 and T2) separated by an intertrial interval of 30 minutes. Mice were placed in the starting arm of the maze at the beginning of each trial. In T1, one of the symmetric arms of the maze was closed (it will be novel in T2) and the animals were allowed to explore the maze for 5 minutes (acquisition phase). In T2, mice had free access to all three arms for 2 minutes (retrieval phase). The time spent with exploration in the novel and familiar arms during T2 was measured. Differences between the exploration times spent in the familiar vs. novel arms of the maze for each group were evaluated by MANOVA, followed by Duncan post hoc test.

T1 sequence (P36544 23-502): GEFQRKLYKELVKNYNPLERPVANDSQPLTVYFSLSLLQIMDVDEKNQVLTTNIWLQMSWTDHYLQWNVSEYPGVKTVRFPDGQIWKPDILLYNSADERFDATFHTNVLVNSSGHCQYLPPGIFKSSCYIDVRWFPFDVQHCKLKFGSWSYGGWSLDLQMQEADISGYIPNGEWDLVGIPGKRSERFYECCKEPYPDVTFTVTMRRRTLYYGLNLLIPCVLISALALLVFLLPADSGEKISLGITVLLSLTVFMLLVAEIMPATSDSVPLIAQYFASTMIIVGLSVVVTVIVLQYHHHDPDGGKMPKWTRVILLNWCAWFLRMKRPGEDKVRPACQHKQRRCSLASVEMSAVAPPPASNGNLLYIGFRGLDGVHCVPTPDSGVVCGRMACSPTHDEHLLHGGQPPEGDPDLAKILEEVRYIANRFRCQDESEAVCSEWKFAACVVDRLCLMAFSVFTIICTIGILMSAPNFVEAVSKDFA

Row | EC50 (human α7 nAchR) [nM] | Compound | reversal of the scopolamine-induced amnesia in the place recognition assay (exploration time novel vs. familiar arm, significance) (Male NMRI mice; 1 mg/kg i.p.) | reversal of the scopolamine-induced amnesia in the place recognition assay (exploration time novel vs. familiar arm, significance) (Male NMRI mice; 3 mg/kg i.p.) | reversal of the scopolamine-induced amnesia in the place recognition assay (exploration time novel vs. familiar arm, significance) (Male NMRI mice; 10 mg/kg i.p.)
1 | 210 | Cn1ccc2cc(CNC(=O)N3CCC4(CC(=O)c5cc(Cl)ccc5O4)C3)ccc21 (racemic) [Example 5] |  |  | 
2 | 430 | Cn1ccc2cc(CNC(=O)N3CCC4(CC(=O)c5cc(Cl)ccc5O4)C3)ccc21 (single isomer, unassigned) [Example 5a] |  |  | 
3 | 400 | Cn1ccc2cc(CNC(=O)N3CCC4(CC(=O)c5cc(Cl)ccc5O4)C3)ccc21 (single isomer, unassigned) [Example 5b] |  |  | 
4 | 120 | Cc1cc2cc(CNC(=O)N3CC4(CC(=O)c5cc(F)ccc5O4)C3)ccc2[nH]1 [Example 1, 6′-Fluoro-N-[(2-methyl-1H-indol-5-yl)methyl]-4′-oxo-3′,4′-dihydrospiro[azetidine-3,2′-[1]benzopyran]-1-carboxamide] | ++ (^++p < 0.01) |  | 
5 | 120 | Cn1ccc2cc(CNC(=O)N3CC4(CC(=O)c5cc(Cl)ccc5O4)C3)ccc21 [Example 3, 6′-chloro-N-[(1-methyl-1H-indol-5-yl)methyl]-4′-oxo-3′,4′-dihydrospiro[azetidine-3,2′-[1]benzopyran]-1-carboxamide] |  |  | 
6 | 190 | Cn1ccc2cc(CNC(=O)N3CC4(CC(=O)c5ccc(F)cc5O4)C3)ccc21 [Example 6, 7′-fluoro-N-[(1-methyl-1H-indol-5-yl)methyl]-4′-oxo-3′,4′-dihydrospiro[azetidine-3,2′-[1]benzopyran]-1-carboxamide] | + (^+p < 0.05) | ++ (^++p < 0.01) | +++ (^+++p < 0.001)
7 | 230 | Cn1ccc2cc(CNC(=O)N3CC4(CC(=O)c5ccccc5O4)C3)ccc21 [Example 7, N-[(1-methyl-1H-indol-5-yl)methyl]-4′-oxo-3′,4′-dihydrospiro[azetidine-3,2′-[1]benzopyran]-1-carboxamide] | +++ (^+++p < 0.001) | +++ (^+++p < 0.001) | +++ (^+++p < 0.001)
8 | 100 | Cn1ccc2cc(CNC(=O)N3CCC4(CCc5cc(Cl)ccc5O4)CC3)ccc21 [Example 10, 6-chloro-N-[(1-methyl-1H-indol-5-yl)methyl]-3,4-dihydrospiro[1-benzopyran-2,4′-piperidine]-1′-carboxamide] |  |  | 
9 | 280 | COc1ccc2c(c1)OC1(CCN(C(=O)NCc3ccc4c(ccn4C)c3)CC1)CC2=O [Example 21] |  |  | 
10 | 230 | COc1ccc2c(c1)C(=O)CC1(CN(C(=O)NCc3ccc4c(c3)c(Cl)cn4C)C1)O2 [Example 25] |  |  | 
11 | 390 | O=C1CC2(CN(C(=O)NCc3ccc4[nH]ccc4c3)C2)Oc2ccc(Cl)cc21 [Example 26, 6′-chloro-N-[(1H-indol-5-yl)methyl]-4′-oxo-3′,4′-dihydrospiro[azetidine-3,2′-[1]benzopyran]-1-carboxamide] |  | + (^+p < 0.05) | 
12 | 130 | Cn1cc(Cl)c2cc(CNC(=O)N3CC4(CC(=O)c5ccccc5O4)C3)ccc21 [Example 37] |  |  | 
13 | 220 | Cn1cc(F)c2cc(CNC(=O)N3CC4(CC(=O)c5cc(F)ccc5O4)C3)ccc21 [Example 38] |  |  | 
14 | 730 | Cn1cc(Cl)c2cc(CNC(=O)N3CC4(CC(=O)c5cc(F)ccc5O4)C3)cnc21 [Example 39] |  |  | 
15 | 60 | Cc1cc2cc(CNC(=O)N3CC4(CC(=O)c5cc(F)cc(F)c5O4)C3)ccc2[nH]1 [Example 41, 6′,8′-difluoro-N-[(2-methyl-1H-indol-5-yl)methyl]-4′-oxo-3′,4′-dihydrospiro[azetidine-3,2′-[1]benzopyran]-1-carboxamide] | + (^+p < 0.05) | + (^+p < 0.05) | 
16 | 360 | O=C1CC2(CN(C(=O)NCc3ccc4[nH]c(Cl)cc4c3)C2)Oc2cc(Cl)ccc21 [Example 43, 7′-chloro-N-[(2-chloro-1H-indol-5-yl)methyl]-4′-oxo-3′,4′-dihydrospiro[azetidine-3,2′-[1]benzopyran]-1-carboxamide] | + (^+p < 0.05) | +++ (^+++p < 0.001) | +++ (^+++p < 0.001)
17 | 150 | Cn1ccc2cc(CNC(=O)N3CC4(CC(=O)c5cc(C(F)(F)F)ccc5O4)C3)ccc21 [Example 50] |  |  | 
18 | 130 | Cn1ccc2cc(CNC(=O)N3CC4(CC(=O)c5ccc(C(F)(F)F)cc5O4)C3)ccc21 [Example 52, N-[(1-methyl-1H-indol-5-yl)methyl]-4′-oxo-7′-(trifluoromethyl)-3′,4′-dihydrospiro[azetidine-3,2′-[1]benzopyran]-1-carboxamide] |  |  | + (^+p < 0.05)
19 | 850 | Cn1cc(Br)c2cc(CNC(=O)N3CC4(CC(=O)c5cc(F)ccc5O4)C3)cnc21 [Example 53] |  |  | 
20 | 470 | Cn1ccc2cc(CNC(=O)N3CC4(CC(=O)c5cc(Cl)cc(Cl)c5O4)C3)cnc21 [Example 58] |  |  | 
21 | 500 | Cn1ccc2cc(CNC(=O)N3CC4(CC(=O)c5ccc(C(F)(F)F)cc5O4)C3)cnc21 [Example 59] |  |  | 
22 |  | O=C1CC2(CN(C(=O)NCc3ccc4[nH]c(C(F)(F)F)cc4c3)C2)Oc2cc(F)ccc21 [Example 61, 7′-fluoro-4′-oxo-N-{[2-(trifluoromethyl)-1H-indol-5-yl]methyl}-3′,4′-dihydrospiro[azetidine-3,2′-[1]benzopyran]-1-carboxamide] |  | ++ (^++p < 0.01) | +++ (^+++p < 0.001)
23 | 750 | Cc1cc2cc(CNC(=O)N3CC4(CC(=O)c5ccc(C(F)(F)F)cc5O4)C3)cnc2n1C [Example 65] |  |  | 
24 | 120 | O=C1CC2(CN(C(=O)NCc3ccc4[nH]c(C(F)F)cc4c3)C2)Oc2cc(F)ccc21 [Example 69, N-{[2-(difluoromethyl)-1H-indol-5-yl]methyl}-7′-fluoro-4′-oxo-3′,4′-dihydrospiro[azetidine-3,2′-[1]benzopyran]-1-carboxamide] |  |  | 
25 | 2300 | CN1CCCc2cc(CNC(=O)N3CC4(CC(=O)c5ccc(F)cc5O4)C3)ccc21 [Example 71, 7′-Fluoro-N-[(1-methyl-1,2,3,4-tetrahydroquinolin-6-yl)methyl]-4′-oxo-3′,4′-dihydrospiro[azetidine-3,2′-[1]benzopyran]-1-carboxamide] |  |  | 
